Results on ten molecules are retold here after article PMC9848156 (Chemical Science, 2022).

The subject of series [1] is Huh 7.5.1 cells. Conditions: read-out: CC50 Huh 7.5.1.
In series [2] the test system is Vero E6 cells. Conditions: read-out: CC50 Vero E6.
Series [3] has as its system SARS-CoV-2 infected Huh 7.5.1 cells. Conditions: for EC50: read-out: EC50 Huh 7.5.1.
Series [4] concerns SARS-CoV-2 infected Vero E6 cells.
Series [5] shares this test system. The class given is cell-based. Conditions: immunofluorescence microscopy.
In series [6] the target is T1, 3CL^pro (Severe acute respiratory syndrome coronavirus 2, UniProt P0DTD1). As to conditions: for IC50: read-out: IC50 against 3CL^pro.
In series [7] the target is transmembrane serine protease 2 (TMPRSS2) (Homo sapiens, UniProt O15393). In words: TMPRSS2 enzymatic assay. As to conditions: read-out: IC50 against TMPRSS2; three independent experiments. Format: biochemical.
In series [8] the target is Furin (Homo sapiens, UniProt P09958). The class given is biochemical. Conditions: read-out: IC50 against Furin; three independent experiments.
In series [9] the target is cathepsin B (Homo sapiens, UniProt P07858). In words: Cathepsin B enzymatic assay. The class given is biochemical. Conditions: read-out: IC50 against Cathepsin B; three independent experiments.
The target in series [10] is SARS-CoV-2 Papain-like protease (PL^pro) (Severe acute respiratory syndrome coronavirus 2, UniProt P0DTD1). The class given is biochemical. Conditions: read-out: IC50 against PL^pro.
Series [11] concerns the target dipeptidyl peptidase-4 (DPP4) (Homo sapiens, UniProt P27487). In words: DPP4 enzymatic assay. Format: biochemical. As to conditions: read-out: IC50 against DPP4; three independent experiments.
Series [12] deals with beta-secretase 1 (BACE1) (Homo sapiens, UniProt P56817). The class given is biochemical. As to conditions: read-out: IC50 against BACE1; three independent experiments.
Series [13] concerns the target cathepsin L (Homo sapiens, UniProt P07711). Briefly: Cathepsin L enzymatic assay. As to conditions: read-out: IC50 against Cathepsin L; three independent experiments. Format: biochemical.
Series [14] addresses T1, 3CL^pro.
The nature of series [15]: Axial ligand exchange with DMSO, DMF or water followed by 1H-NMR. Format: physicochemical.
Series [16] addresses T1, 3CL^pro. The source holds these as a separate data set.
Series [17] can be described thus: Aqueous solubility tests. Format: physicochemical. As to conditions: 0.4–0.1% DMSO or DMF in phosphate-buffered saline.
The nature of series [18]: in vitro. Conditions: African green monkey.
Series [19] deals with SARS-CoV-2 infected Huh 7.5.1 cells. Briefly: microbe, parasite or virus in culture. Conditions: Severe acute respiratory syndrome coronavirus 2, Huh-7.5.1, 48 h, read-out: EC50 Huh 7.5.1.
Series [20] can be described thus: in vitro. As to conditions: human.

The structures appear in SMILES notation. Like-named read-outs stand apart in the source and are kept apart here.

Chain of Furin (P09958 108-794): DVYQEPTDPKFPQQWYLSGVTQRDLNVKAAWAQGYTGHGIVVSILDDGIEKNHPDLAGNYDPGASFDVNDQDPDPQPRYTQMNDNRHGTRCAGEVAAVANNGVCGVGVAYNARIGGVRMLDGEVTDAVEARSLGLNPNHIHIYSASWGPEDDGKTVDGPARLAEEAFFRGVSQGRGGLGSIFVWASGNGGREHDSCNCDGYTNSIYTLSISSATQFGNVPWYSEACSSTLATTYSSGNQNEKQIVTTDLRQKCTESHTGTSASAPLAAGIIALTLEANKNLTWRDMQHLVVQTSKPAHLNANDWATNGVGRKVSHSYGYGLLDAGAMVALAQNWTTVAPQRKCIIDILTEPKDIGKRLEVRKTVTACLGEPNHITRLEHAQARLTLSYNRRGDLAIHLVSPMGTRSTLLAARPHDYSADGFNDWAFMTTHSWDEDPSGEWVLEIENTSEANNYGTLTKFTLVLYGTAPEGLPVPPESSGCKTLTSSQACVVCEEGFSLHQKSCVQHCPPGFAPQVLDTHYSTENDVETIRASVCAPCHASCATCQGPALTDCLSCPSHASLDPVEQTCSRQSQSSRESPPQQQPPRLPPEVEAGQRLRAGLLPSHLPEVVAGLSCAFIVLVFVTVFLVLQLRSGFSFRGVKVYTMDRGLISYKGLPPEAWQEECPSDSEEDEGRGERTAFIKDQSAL
Chain of dipeptidyl peptidase-4 (DPP4) (P27487 whole entry): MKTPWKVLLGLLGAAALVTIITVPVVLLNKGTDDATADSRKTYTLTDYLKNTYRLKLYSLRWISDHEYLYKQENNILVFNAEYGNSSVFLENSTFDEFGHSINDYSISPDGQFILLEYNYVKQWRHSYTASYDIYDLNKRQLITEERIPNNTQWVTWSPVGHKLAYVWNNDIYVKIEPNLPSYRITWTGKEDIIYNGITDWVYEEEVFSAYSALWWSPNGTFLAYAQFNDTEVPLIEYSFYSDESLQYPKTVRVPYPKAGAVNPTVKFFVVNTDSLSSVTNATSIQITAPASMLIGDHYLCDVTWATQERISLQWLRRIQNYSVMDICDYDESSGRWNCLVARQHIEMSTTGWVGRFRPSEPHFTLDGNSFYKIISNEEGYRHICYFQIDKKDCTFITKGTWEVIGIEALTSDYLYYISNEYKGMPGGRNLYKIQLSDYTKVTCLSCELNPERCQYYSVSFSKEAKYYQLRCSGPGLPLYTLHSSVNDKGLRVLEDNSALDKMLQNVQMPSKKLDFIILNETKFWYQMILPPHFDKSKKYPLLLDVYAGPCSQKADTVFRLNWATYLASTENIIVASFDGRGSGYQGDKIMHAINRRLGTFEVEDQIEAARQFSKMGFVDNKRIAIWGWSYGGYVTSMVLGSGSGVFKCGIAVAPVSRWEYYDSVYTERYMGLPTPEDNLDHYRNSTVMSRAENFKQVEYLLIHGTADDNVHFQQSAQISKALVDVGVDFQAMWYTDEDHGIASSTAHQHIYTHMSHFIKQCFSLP
Chain of cathepsin L (P07711 114-333): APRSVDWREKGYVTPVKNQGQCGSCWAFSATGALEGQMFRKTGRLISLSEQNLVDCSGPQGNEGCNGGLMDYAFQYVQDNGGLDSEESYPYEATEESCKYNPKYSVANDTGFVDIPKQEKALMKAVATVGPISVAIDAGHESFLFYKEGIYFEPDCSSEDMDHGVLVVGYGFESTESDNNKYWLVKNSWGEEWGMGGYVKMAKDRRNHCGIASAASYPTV
Chain of beta-secretase 1 (BACE1) (P56817 46-501): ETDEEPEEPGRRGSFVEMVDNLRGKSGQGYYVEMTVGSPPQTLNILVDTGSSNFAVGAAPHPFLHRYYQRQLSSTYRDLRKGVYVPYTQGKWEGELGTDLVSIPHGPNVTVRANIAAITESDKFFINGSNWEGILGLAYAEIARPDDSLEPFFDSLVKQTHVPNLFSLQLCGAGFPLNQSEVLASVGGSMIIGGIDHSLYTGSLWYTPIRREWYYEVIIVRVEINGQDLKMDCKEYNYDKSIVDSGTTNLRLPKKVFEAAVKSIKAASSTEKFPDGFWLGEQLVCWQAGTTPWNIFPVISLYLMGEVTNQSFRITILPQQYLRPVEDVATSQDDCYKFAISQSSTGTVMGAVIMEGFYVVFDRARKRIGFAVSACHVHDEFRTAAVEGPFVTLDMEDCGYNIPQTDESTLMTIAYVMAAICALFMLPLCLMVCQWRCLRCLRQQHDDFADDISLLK
Chain of transmembrane serine protease 2 (TMPRSS2) (O15393 whole entry): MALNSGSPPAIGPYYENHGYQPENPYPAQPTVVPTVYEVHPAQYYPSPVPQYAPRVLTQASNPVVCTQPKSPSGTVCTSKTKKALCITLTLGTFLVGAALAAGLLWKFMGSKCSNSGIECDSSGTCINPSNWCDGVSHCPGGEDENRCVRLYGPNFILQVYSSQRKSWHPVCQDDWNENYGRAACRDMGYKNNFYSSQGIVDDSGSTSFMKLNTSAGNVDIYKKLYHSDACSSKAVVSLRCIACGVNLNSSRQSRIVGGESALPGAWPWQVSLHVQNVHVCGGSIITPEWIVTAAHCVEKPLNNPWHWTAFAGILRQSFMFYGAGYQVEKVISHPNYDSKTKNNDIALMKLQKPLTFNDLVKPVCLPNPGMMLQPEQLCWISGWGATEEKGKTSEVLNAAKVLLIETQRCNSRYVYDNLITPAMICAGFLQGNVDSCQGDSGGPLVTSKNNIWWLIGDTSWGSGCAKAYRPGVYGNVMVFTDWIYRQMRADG

For `CN1CCN(C(=O)N[C@@H](Cc2ccccc2)C(=O)N[C@H](/C=C/S(=O)(=O)c2ccccc2)CCc2ccccc2)CC1` [K777], the CC50 in series [1] and in [2] was greater than 2 µM each time. Also, the EC50 in series [3] was greater than 2 µM; in [4] (read-out: EC50 Vero E6), 0.009 ± 0.002 µM. For the same molecule, in [4] (Vero E6 cells), the “SI Vero E6 (CC50/EC50; therapeutic index)” value is listed as greater than 222. In series [5], the “concentration protecting cells from viral infection” value is no more than 125 nM.
On to `COc1cccc(C(=O)[O-])n1.[C-]#[O+].[C-]#[O+].[C-]#[O+].[Re+]` [Compound 39], for which, in series [6], the concentration for half-maximal inhibition (IC50) was 8.5 ± 1.9 µM.
Take `O=C([O-])c1cc(O)ccn1.[C-]#[O+].[C-]#[O+].[C-]#[O+].[Re+]` [Compound 18]: the IC50 in [6] is 4.6 ± 0.5 µM; in series [7] it was greater than 100 µM; in [8], greater than 100 µM; in [9], greater than 100 µM; in series [10], greater than 100 µM; in series [11] it was greater than 100 µM. Moreover, the half-inhibitory concentration (IC50) in [12] was 76 ± 8 µM; in series [13] it was 67 ± 9 µM.
`O=C([O-])c1cccc(O)n1.[C-]#[O+].[C-]#[O+].[C-]#[O+].[Re+]` [Compound 38]: the IC50 in [6] is 8.8 ± 3.4 µM.
Regarding `Nc1cccc(C(=O)[O-])n1.[C-]#[O+].[C-]#[O+].[C-]#[O+].[Re+]` [Compound 40], the half-maximal inhibitory concentration (IC50) in series [6] came to 10.9 ± 3.1 µM.
For the molecule `O=C([O-])c1ncccc1F.[C-]#[O+].[C-]#[O+].[C-]#[O+].[Re+]` [Compound 2], the IC50 in [6] is 19 ± 3.7 µM.
Regarding `O.O=C([O-])c1ccccn1.[C-]#[O+].[C-]#[O+].[C-]#[O+].[Re+]` [Compound 1, [Re(pic)(CO)3(H2O)]], the “Re content bound to protein” value in [14] is 0.7 ± 0.2 equivalents of Re per 3CL^pro. Besides, the “time to full exchange of the axial ligand in DMF-d7” value in series [15] was no more than 6 h. In addition, the “aqua ligand exchange in DMSO-d6” value in [15] (within 5 min) is “rapid exchange of the aqua ligand with DMSO”. The IC50 was 9.1 ± 1.8 µM in [6]; greater than 100 µM in [7]; greater than 100 µM in [8]; greater than 100 µM in [9]; greater than 100 µM in [10]; greater than 100 µM in [11]. The figures for the IC50 in [12] and in series [13] were 83 ± 6 µM and 53 ± 7 µM, respectively. For the same molecule, the “adduct formation with 3CL^pro (deconvoluted mass spectrum)” value in series [16] is on record as “a single attached metal complex”. In addition, the “adduct formation with the GC376-3CL^pro adduct (binding competition)” value in series [16] is listed as “did not show the formation of new products”. Also, the “precipitate or aggregate formation by DLS” value in series [17] is given as “No particle formation or aggregation was observed”.
Consider `CS(C)=O.O=C([O-])c1ccccn1.[C-]#[O+].[C-]#[O+].[C-]#[O+].[Re+]` [1DMSO, [Re(pic)(CO)3(DMSO)]], for which the “aqueous stability of the DMSO adduct” value in series [15] (2 : 8 DMSO-d6 : H2O, up to 6 h) is recorded as “the majority of the compound remained as the DMSO adduct even after 6 h”. For the same molecule, in [6], the “effect of extending the preincubation time on 3CL^pro inhibition” value is “strongly enhance the inhibitory activity over time” and the IC50 was 16.5 ± 3.4 µM. The CC50 in series [1] turned out to be 16.5 ± 1.3 µM. For the same molecule, in [3], the “SI Huh 7.5.1 (CC50/EC50; therapeutic index)” value is 9 and the EC50 worked out at 1.8 ± 0.5 µM. Besides, the “SI Vero E6 (CC50/EC50; therapeutic index)” value in series [4] is listed as greater than 9.
In the case of `Nc1ccnc(C(=O)[O-])c1.[C-]#[O+].[C-]#[O+].[C-]#[O+].[Re+]` [Compound 20], in series [6], the IC50 amounted to 8.4 ± 2.2 µM.
Consider `CCC(CC)COC(=O)[C@H](C)N[P@](=O)(OC[C@H]1O[C@@](C#N)(c2ccc3c(N)ncnn23)[C@H](O)[C@@H]1O)Oc1ccccc1` [Remdesivir], for which the CC50 in series [18] and in series [20] was greater than 20 µM throughout. Besides, the concentration giving a half-maximal response (EC50) in [19] was less than 0.04 µM. Also, in series [3] (Huh 7.5.1 cells), the “SI Huh 7.5.1 (CC50/EC50; therapeutic index)” value is recorded as greater than 500. In series [4] (Vero E6 cells), the “SI Vero E6 (CC50/EC50; therapeutic index)” value is greater than 4.

Broadly, the EC50 is the concentration that produces a half-maximal response. For orientation: IC50 means the concentration at which inhibition is half-maximal.
